In US20070128217A1 (priority 2003, published 2007):

Tests used:
[1] = tested on: antibodies in sera from SARS patients (sera 1a, 1b, 2, 6, 37, 62, London, SARS-yellow, SARS-green); assay type: binding, human; set-up: Binding of serum 6 to linear peptides of protein X1 of SARS-CoV Urbani / Binding of serum 37 to linear peptides of protein X1 of SARS-CoV Urbani / Binding of serum 6 to looped/cyclic peptide (PEPSCAN-ELISA) / Binding of serum 37 to looped/cyclic peptide (PEPSCAN-ELISA) / Binding of serum 37 to looped/cyclic peptides of protein X1 of SARS-CoV Urbani / Binding of serum 6 to linear peptides of protein X2 / Binding of serum 37 to linear peptides of protein X2 / Binding of serum 37 to looped/cyclic peptides of protein X2 of SARS-CoV Urbani / Binding of serum 6 to linear peptides of protein M of SARS-CoV Urbani / Binding of serum 37 to linear peptides of protein M of SARS-CoV Urbani / Binding of serum 6 to looped/cyclic peptides of protein M of SARS-CoV Urbani / Binding of serum 37 to looped/cyclic peptides of protein M of SARS-CoV Urbani / Binding of serum 6 to linear peptides of protein X3 of SARS-CoV Urbani / Binding of serum 37 to linear peptides of protein X3 of SARS-CoV Urbani / Binding of serum 37 to looped/cyclic peptides of protein X3 of SARS-CoV Urbani / Binding of serum 6 to linear peptides of protein X4 of SARS-CoV Urbani / Binding of serum 37 to linear peptides of protein X4 of SARS-CoV Urbani / Binding of serum 37 to looped/cyclic peptides of protein X4 of SARS-CoV Urbani / Binding of serum 6 to linear peptides of protein X5 of SARS-CoV Urbani / Binding of serum 37 to linear peptides of protein X5 of SARS-CoV Urbani / Binding of serum 37 to looped/cyclic peptides of protein X5 of SARS-CoV Urbani / Binding of serum 6 to linear peptides of protein N of SARS-CoV Urbani / Binding of serum 37 to linear peptides of protein N of SARS-CoV Urbani / Binding of serum 6 to linear peptide (PEPSCAN-ELISA) / Binding of serum 1a to looped/cyclic peptides of protein N of SARS-CoV Urbani / Binding of serum 1b to looped/cyclic peptides of protein N of SARS-CoV Urbani / Binding of serum 2 to looped/cyclic peptides of protein N of SARS-CoV Urbani / Binding of serum 6 to looped/cyclic peptides of protein N of SARS-CoV Urbani / Binding of serum 37 to looped/cyclic peptides of protein N of SARS-CoV Urbani / Binding of serum 62 to looped/cyclic peptides of protein N of SARS-CoV Urbani / Binding of serum London to looped/cyclic peptides of protein N of SARS-CoV Urbani / Binding of serum SARS-green to looped/cyclic peptides of protein N of SARS-CoV Urbani: unit not given here
[2] = tested on: control sera (pooled serum of ten healthy LUMC hospital workers; commercial negative donor pooled serum from the Dutch bloodbank); assay type: binding, human; set-up: Binding of Control serum LUMC to linear peptides / Binding of Control serum Blood-bank to linear peptides / Binding of Control serum LUMC to looped peptides / Binding of Control Serum Blood-Bank to Looped peptides / Binding of Control serum LUMC to linear peptides of the protein M of SARS-CoV Urbani / Binding of Control serum Blood-bank to linear peptides of the protein M of SARS-CoV Urbani / Binding of Control serum LUMC to looped peptides of the protein M of SARS-CoV Urbani / Binding of Control Serum Blood-Bank to Looped peptides of the protein M of SARS-CoV Urbani: unit not given here
[3] = tested on: rabbit serum obtained by immunizing a rabbit with the SARS-CoV strain Frankfurt 1; assay type: binding; set-up: Binding of a rabbit serum to linear peptides / Binding of a rabbit serum to looped peptides / Rabbit serum linear peptides / Rabbit serum looped peptides / Binding of a rabbit serum to linear peptides of protein N of SARS-CoV Urbani (Rabbit serum linear peptides) / Binding of a rabbit serum to looped/cyclic peptides of protein N of SARS-CoV Urbani (Rabbit serum looped peptides): unit not given here

VTLACFVLAAVYRIN
Binding of serum 1a to linear peptides of protein M of SARS-CoV Urbani [1]: 0.7
Binding of serum 1a to looped/cyclic peptides of protein M of SARS-CoV Urbani [1]: 0.8
Binding of serum 1b to linear peptides of protein M of SARS-CoV Urbani [1]: 0.6
Binding of serum 1b to looped/cyclic peptides of protein M of SARS-CoV Urbani [1]: 0.6
Binding of serum 2 to linear peptides of protein M of SARS-CoV Urbani [1]: 0.5
Binding of serum 2 to looped/cyclic peptides of protein M of SARS-CoV Urbani [1]: 0.6
Binding of serum 6 to linear peptides of protein M of SARS-CoV Urbani [1]: 0.4
Binding of serum 6 to looped/cyclic peptides of protein M of SARS-CoV Urbani [1]: 0.8
Binding of serum 37 to linear peptides of protein M of SARS-CoV Urbani [1]: 0.4
Binding of serum 37 to looped/cyclic peptides of protein M of SARS-CoV Urbani [1]: 0.7
Binding of serum 62 to linear peptides of protein M of SARS-CoV Urbani [1]: 0.5
Binding of serum 62 to looped/cyclic peptides of protein M of SARS-CoV Urbani [1]: 0.7
Binding of serum London to linear peptides of protein M of SARS-CoV Urbani [1]: 0.3
Binding of serum London to looped/cyclic peptides of protein M of SARS-CoV Urbani [1]: 0.3
Binding of serum SARS-green to linear peptides of protein M of SARS-CoV Urbani [1]: 0.5
Binding of serum SARS-green to looped/cyclic peptides of protein M of SARS-CoV Urbani [1]: 0.2
Binding of serum SARS-yellow to linear peptides of protein M of SARS-CoV Urbani [1]: 0.1
Binding of serum SARS-yellow to looped/cyclic peptides of protein M of SARS-CoV Urbani [1]: 0.6
Binding of Control Serum Blood-Bank to Looped peptides of the protein M of SARS-CoV Urbani [2]: 0.8
Binding of Control serum Blood-bank to linear peptides of the protein M of SARS-CoV Urbani [2]: 0.5
Binding of Control serum LUMC to linear peptides of the protein M of SARS-CoV Urbani [2]: 0.5
Binding of Control serum LUMC to looped peptides of the protein M of SARS-CoV Urbani [2]: 0.7
Rabbit serum linear peptides [3]: 0.2
Rabbit serum looped peptides [3]: 0.3

HKKVSTNLCTHSFRK
Binding of serum 1a to looped/cyclic peptides of protein X2 of SARS-CoV Urbani [1]: 0.6
Binding of serum 1b to looped/cyclic peptides of protein X2 of SARS-CoV Urbani [1]: 0.4
Binding of serum 2 to looped/cyclic peptides of protein X2 of SARS-CoV Urbani [1]: 0.8
Binding of serum 6 to looped/cyclic peptides of protein X2 of SARS-CoV Urbani [1]: 0.6
Binding of serum 37 to looped/cyclic peptides of protein X2 of SARS-CoV Urbani [1]: 0.5
Binding of serum 62 to looped/cyclic peptides of protein X2 of SARS-CoV Urbani [1]: 0.7
Binding of serum London to looped/cyclic peptides of protein X2 of SARS-CoV Urbani [1]: 0.3
Binding of serum SARS-green to looped/cyclic peptides of protein X2 of SARS-CoV Urbani [1]: 0.3
Binding of serum SARS-yellow to looped/cyclic peptides of protein X2 of SARS-CoV Urbani [1]: 0.6
Recognition of the peptide by sera of SARS-CoV infected individuals, and form (linear, looped/cyclic) in which it is recognized [1]: recognized in linear form
Binding of Control Serum Blood-Bank to Looped peptides [2]: 0.5
Binding of Control serum Blood-bank to linear peptides [2]: 0.8
Binding of Control serum LUMC to linear peptides [2]: 0.9
Binding of Control serum LUMC to looped peptides [2]: 0.8
Binding of a rabbit serum to linear peptides [3]: 0.4
Binding of a rabbit serum to looped peptides [3]: 0.1

LYLYALIYFLQCINA
Binding of serum 1a to linear peptides of protein X1 of SARS-CoV Urbani [1]: 0.7
Binding of serum 1a to looped/cyclic peptide (PEPSCAN-ELISA) [1]: 0.3
Binding of serum 1b to linear peptides of protein X1 of SARS-CoV Urbani [1]: 0.5
Binding of serum 1b to looped/cyclic peptide (PEPSCAN-ELISA) [1]: 0.3
Binding of serum 2 to linear peptides of protein X1 of SARS-CoV Urbani [1]: 0.4
Binding of serum 2 to looped/cyclic peptide (PEPSCAN-ELISA) [1]: 0.2
Binding of serum 6 to linear peptides of protein X1 of SARS-CoV Urbani [1]: 0.3
Binding of serum 6 to looped/cyclic peptide (PEPSCAN-ELISA) [1]: 0.3
Binding of serum 37 to linear peptides of protein X1 of SARS-CoV Urbani [1]: 0.5
Binding of serum 37 to looped/cyclic peptide (PEPSCAN-ELISA) [1]: 0.4
Binding of serum 62 to linear peptides of protein X1 of SARS-CoV Urbani [1]: 0.5
Binding of serum 62 to looped/cyclic peptide (PEPSCAN-ELISA) [1]: 0.4
Binding of serum London to linear peptides of protein X1 of SARS-CoV Urbani [1]: 0.2
Binding of serum London to looped/cyclic peptide (PEPSCAN-ELISA) [1]: 0.2
Binding of serum SARS-green to linear peptides of protein X1 of SARS-CoV Urbani [1]: 0.2
Binding of serum SARS-green to looped/cyclic peptide (PEPSCAN-ELISA) [1]: 0.2
Binding of serum SARS-yellow to linear peptides of protein X1 of SARS-CoV Urbani [1]: 0.5
Binding of serum SARS-yellow to looped/cyclic peptide (PEPSCAN-ELISA) [1]: 0.3
Binding of Control Serum Blood-Bank to Looped peptides [2]: 0.5
Binding of Control serum Blood-bank to linear peptides [2]: 0.5
Binding of Control serum LUMC to linear peptides [2]: 0.5
Binding of Control serum LUMC to looped peptides [2]: 0.4
Binding of a rabbit serum to linear peptides [3]: 0.1
Binding of a rabbit serum to looped peptides [3]: 0.5
